# Test results: patent publication US20110237686A1, “FORMULATIONS AND METHODS OF USE” (Cerulean Pharma Inc, priority 2010, published 2011)
# Several values for one entry are separate records, joined by “and”; a condition that tells them apart may be missing. Identical values can stand only once.
# How the values were obtained:
# Format in all cases: physicochemical
# [1] = Lyophilization using other cyclodextrins; settings: for Dv90 / PDI / Zave / Filtration Potency Loss: post lyophilization
# Method: Other CDs were also evaluated at the similar weight ratio of cryoprotectant/nanoparticle.
# [2] = Lyophilization of stealth liposome (Doxil); settings: lipids 16 mg/mL, cryoprotectant 40 mg/mL (2.5:1 w/w lipid), HP-β-CD lyophilization cycle, post lyophilization
# [3] = Lyophilization using HP-β-CD, freezing with liquid nitrogen and vacuum at room temperature; settings: PEGylated nanoparticles A, polymer 31.25 mg/mL, vacuum at room temperature;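 also: cyclodextrins or their derivatives tested as cryoprotectant during lyophilization of PEGylated nanoparticles, assessing particle size growth attributed to PEG crystallization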
# Method: In this example, a new strategy of using cyclodextrins and their derivatives as a cryoprotectant was tested. […] A cryoprotectant is needed to lyophilize liquid formulation that contain PEGylated nanoparticles A (Entries #1 and #2).
# [4] = Cryoprotectant screen, sucrose lyophilization cycle; settings: PEGylated nanoparticles A; for Dv90 / PDI / Zave: reconstituted
# Method: A cryoprotectant screen was performed as follows.
# These conditions are shown below in Table 21.
# [5] = Simple lyophilization of PLGA7K-PVA-PEG2K-30 and PLGA7K-PVA-PEG5K-30 PEGylated nanoparticle formulations; settings: 2K PEG PLGA nanoparticles 20 mg/mL, cryoprotectant 20 mg/mL (1:1 w/w)
# From the text: The results are similar to that obtained for PEGylated nanoparticles A except for SB-β-CD. The result from SB-β-CD supported the H-bonding mechanism for cryoprotection of PEGylated PLGA nanoparticles since SB-β-CD has less hydroxyl groups than α-CD, γ-CD and HP-β-CD (about ⅓ of —OH groups of β-CD are substituted by sulfobutyl groups).
# [6] = PEGylated nanoparticles A, polymer 31.25 mg/mL, CD 40 mg/mL (1.28:1 w/w)
# [7] = cryoprotectant 20 mg/mL (0.64:1 w/w)
# [8] = cryoprotectant 40 mg/mL (1.28:1 w/w)
# [9] = cryoprotectant 40 mg/mL (1.28:1 w/w), listed as HP-beta-CD
# [10] = cryoprotectant 60 mg/mL (1.92:1 w/w)
# [11] = cryoprotectant 80 mg/mL (2.56:1 w/w)
# [12] = polymer 31.25 mg/mL (Doce. 1.5), cryoprotectant 100 mg/mL (3.2:1 w/w)
# [13] = polymer 31.25 mg/mL, cryoprotectant 30 mg/mL (0.96:1 w/w)
# [14] = polymer 10.42 mg/mL (Doce. 0.50), cryoprotectant 100 mg/mL (9.6:1 w/w)
# [15] = polymer 20.83 mg/mL (Doce. 1.00), cryoprotectant 100 mg/mL (4.8:1 w/w)
# [16] = polymer 26.05 mg/mL (Doce. 1.25), cryoprotectant 100 mg/mL (3.8:1 w/w)
# [17] = polymer 31.25 mg/mL, cryoprotectant 20 mg/mL (0.64:1 w/w)
# [18] = polymer 31.25 mg/mL, cryoprotectant 60 mg/mL (1.92:1 w/w)
# [19] = polymer 31.25 mg/mL, cryoprotectant 200 mg/mL (6.4:1 w/w)
# [20] = polymer 31.25 mg/mL, cryoprotectant 300 mg/mL (9.6:1 w/w)
# [21] = cryoprotectant 15 mg/mL (0.48:1 w/w)
# [22] = SB-β-CD 40 mg/mL, polymer 28.87 mg/mL (Doce. 1.94), 1.39:1 w/w
# [23] = SB-β-CD 60 mg/mL, polymer 28.87 mg/mL (Doce. 1.94), 2.08:1 w/w
molecule,measurement,setting,value
2-hydroxypropyl-β-cyclodextrin [HP-β-CD],Dv90,[1]; [6],119 nm
same,PDI,[1]; [6],0.075
same,Zave,[1]; [6],90.66 nm
same,Dv90,[2],119 nm
same,PDI,[2],0.071
same,Zave,[2],90.32 nm
same,Dv90,[3]; [7],121 nm
same,PDI,[3]; [7],0.095
same,Reconstituted Solution appearance,[3]; [7],some
same,Zave,[3]; [7],90.93 nm
same,Reconstituted Solution appearance,[3]; [8],good
same,Dv90,[3]; [9],118 nm and 119 nm
same,PDI,[3]; [9],0.077 and 0.075
same,Zave,[3]; [9],89.43 nm and 90.66 nm
same,Dv90,[3]; [10],119 nm
same,PDI,[3]; [10],0.089
same,Reconstituted Solution appearance,[3]; [10],good
same,Zave,[3]; [10],89.84 nm
same,Dv90,[3]; [11],119 nm
same,PDI,[3]; [11],0.095
same,Reconstituted Solution appearance,[3]; [11],good
same,Zave,[3]; [11],90.60 nm
"OC[C@H]1O[C@@H](O[C@H]2[C@H](O)[C@@H](O)C(O)O[C@@H]2CO)[C@H](O)[C@@H](O)[C@H]1O (stereo partly drawn) [Lactose, lactose]",Lyophilized preparation Appearance,[4]; [12],some
same,Recon. Solution Appearance,[4]; [12],cloudy
same,Dv90,[4]; [12],178 nm
same,PDI,[4]; [12],0.352
same,Zave,[4]; [12],183.2 nm
"OC[C@@H](O)[C@@H](O)[C@H](O)[C@H](O)CO [Mannitol, mannitol]",outcome after lyophilization (in place of particle size),[5],Precipitated
same,Lyophilized preparation Appearance,[4]; [12],some
same,Recon. Solution Appearance,[4]; [12],cloudy
same,Dv90,[4]; [12],2540 nm
same,PDI,[4]; [12],0.544
same,Zave,[4]; [12],472.7 nm
same,Lyophilized preparation Appearance,[4]; [13],good
same,Recon. Solution Appearance,[4]; [13],precipitation
same,Dv90,[4]; [13],340 nm
same,PDI,[4]; [13],0.638
same,Zave,[4]; [13],499.2 nm
"OC[C@H]1O[C@H](O[C@H]2O[C@H](CO)[C@@H](O)[C@H](O)[C@H]2O)[C@H](O)[C@@H](O)[C@@H]1O [Trehalose, trehalose]",outcome after lyophilization (in place of particle size),[5],Precipitated
same,Lyophilized preparation Appearance,[4]; [14],good
same,Recon. Solution Appearance,[4]; [14],slight
same,Dv90,[4]; [14],160 nm
same,PDI,[4]; [14],0.0166
same,Zave,[4]; [14],108.1 nm
same,Lyophilized preparation Appearance,[4]; [15],good
same,Recon. Solution Appearance,[4]; [15],cloudy
same,Dv90,[4]; [15],189 nm
same,PDI,[4]; [15],0.725
same,Zave,[4]; [15],606.5 nm
same,Lyophilized preparation Appearance,[4]; [16],good
same,Recon. Solution Appearance,[4]; [16],cloudy
same,Dv90,[4]; [16],379 nm
same,PDI,[4]; [16],0.372
same,Zave,[4]; [16],259.1 nm
same,Lyophilized preparation Appearance,[4]; [12],good
same,Recon. Solution Appearance,[4]; [12],cloudy
same,Dv90,[4]; [12],286 nm
same,PDI,[4]; [12],0.417
same,Zave,[4]; [12],294.2 nm
same,Lyophilized preparation Appearance,[4]; [17],good
same,Recon. Solution Appearance,[4]; [17],precipitation
same,Dv90,[4]; [17],188 nm
same,PDI,[4]; [17],0.381
same,Zave,[4]; [17],236.1 nm
same,Lyophilized preparation Appearance,[4]; [18],good
same,Recon. Solution Appearance,[4]; [18],cloudy
same,Dv90,[4]; [18],169 nm
same,PDI,[4]; [18],0.464
same,Zave,[4]; [18],276.9 nm
same,Lyophilized preparation Appearance,[4]; [19],good
same,Recon. Solution Appearance,[4]; [19],slight
same,Dv90,[4]; [19],186 nm
same,PDI,[4]; [19],0.348
same,Zave,[4]; [19],192.2 nm
same,Lyophilized preparation Appearance,[4]; [20],good
same,Recon. Solution Appearance,[4]; [20],slight
same,Dv90,[4]; [20],205 nm
same,PDI,[4]; [20],0.325
same,Zave,[4]; [20],154.8 nm
same,Dv90,[3]; [8],130 nm
same,PDI,[3]; [8],0.260
same,Reconstituted Solution appearance,[3]; [8],precipitation
same,Zave,[3]; [8],114.1 nm
"OC[C@H]1O[C@@H]2O[C@H]3[C@H](O)[C@@H](O)[C@@H](O[C@H]4[C@H](O)[C@@H](O)[C@@H](O[C@H]5[C@H](O)[C@@H](O)[C@@H](O[C@H]6[C@H](O)[C@@H](O)[C@@H](O[C@H]7[C@H](O)[C@@H](O)[C@@H](O[C@H]1[C@H](O)[C@H]2O)O[C@@H]7CO)O[C@@H]6CO)O[C@@H]5CO)O[C@@H]4CO)O[C@@H]3CO [α-CD, α-cyclodextrin]",Dv90,[1]; [6],121 nm
same,PDI,[1]; [6],0.070
same,Zave,[1]; [6],92.06 nm
same,Dv90,[5],139 nm
same,PDI,[5],0.087
same,Zave,[5],101.0 nm
same,Dv90,[3]; [21],122 nm
same,Filtration Loss,[3]; [21],8%
same,PDI,[3]; [21],0.088
same,Reconstituted Solution appearance,[3]; [21],good
same,Zave,[3]; [21],92.05 nm
"OC[C@H]1O[C@@H]2O[C@H]3[C@H](O)[C@@H](O)[C@@H](O[C@H]4[C@H](O)[C@@H](O)[C@@H](O[C@H]5[C@H](O)[C@@H](O)[C@@H](O[C@H]6[C@H](O)[C@@H](O)[C@@H](O[C@H]7[C@H](O)[C@@H](O)[C@@H](O[C@H]8[C@H](O)[C@@H](O)[C@@H](O[C@H]1[C@H](O)[C@H]2O)O[C@@H]8CO)O[C@@H]7CO)O[C@@H]6CO)O[C@@H]5CO)O[C@@H]4CO)O[C@@H]3CO [β-CD, β-cyclodextrin]",solubility of the lyoprotectant in the formulation,[1]; CD 40 mg/mL,Beta-CD is not soluble at this
"OC[C@H]1O[C@@H]2O[C@H]3[C@H](O)[C@@H](O)[C@@H](O[C@H]4[C@H](O)[C@@H](O)[C@@H](O[C@H]5[C@H](O)[C@@H](O)[C@@H](O[C@H]6[C@H](O)[C@@H](O)[C@@H](O[C@H]7[C@H](O)[C@@H](O)[C@@H](O[C@H]8[C@H](O)[C@@H](O)[C@@H](O[C@H]9[C@H](O)[C@@H](O)[C@@H](O[C@H]1[C@H](O)[C@H]2O)O[C@@H]9CO)O[C@@H]8CO)O[C@@H]7CO)O[C@@H]6CO)O[C@@H]5CO)O[C@@H]4CO)O[C@@H]3CO [γ-CD, γ-cyclodextrin]",Dv90,[1]; [6],121 nm
same,PDI,[1]; [6],0.097
same,Zave,[1]; [6],91.06 nm
same,Dv90,[5],139 nm
same,PDI,[5],0.080
same,Zave,[5],101.8 nm
β-cyclodextrin sulfobutylether [SB-β-CD],Dv90,[1]; [22],149 nm
same,Filtration Potency Loss,[1]; [22],2%
same,Zave,[1]; [22],106.9 nm
same,Dv90,[1]; [23],151 nm
same,Filtration Potency Loss,[1]; [23],8%
same,Zave,[1]; [23],108.5 nm
same,outcome after lyophilization (in place of particle size),[5],Precipitated
